{
  "source": "patent US20050090529A1",
  "about": "“3,5 Disubstituted indazole compounds with nitrogen-bearing 5-membered heterocycles, pharmaceutical compositions, and methods for mediating or inhibiting cell proliferation” (PFIZER INC, priority 2003, published 2005)",
  "data": [
    {"test_system": "Cyclin-dependent kinase", "assay": "Cyclin-dependent kinase inhibition, % inhibition at 10 nM (library Examples 99-270)", "assay_type": "biochemical", "conditions": "10 nM compound", "protocol": "Cyclin-dependent kinase activity was measured by quantifying the enzyme-catalyzed, time-dependent incorporation of radioactive phosphate from [^32P]ATP or [^33P]ATP into a protein substrate. Unless noted otherwise, assays were performed in 96-well plates in a total volume of 50 μL, in the presence of 10 mM HEPES (N-[2-hydroxyethyl]piperazine-N′-[2-ethanesulfonic acid]) (pH 7.4), 10 mM MgCl2, 25 μM adenosine triphosphate (ATP), 1 mg/mL ovalbumin, 5 μg/mL leupeptin, 1 mM dithiothreitol, 10 mM beta-glycerophosphate, 0.1 mM sodium vanadate, 1 mM sodium fluoride, 2.5 mM ethylene glycol-bis(β-aminoethyl ethKer)-N,N,N′N′-tetraacetic acid (EGTA), 2% (v/v) dimethylsulfoxide, and 0.03-0.4 μCi [^32/33P]ATP per reaction. Reactions were initiated with enzyme, incubated at 30° C., and terminated after 20 minutes by the addition of ethylenediaminetetraacetic acid (EDTA) to 250 mM. The phosphorylated substrate was then captured on a nitrocellulose or phosphocellulose membrane using a 96-well filtration manifold, and unincorporated radioactivity was removed by repeated washing with 0.85% phosphoric acid. Radioactivity was quantified by exposing the dried membranes to a phosphorimager.\nResults of assays performed on compounds, which include the specific examples described above are provided in Examples 99-274 above, and in Table 1 below. Unless indicated otherwise in a particular entry, the units and assays used are as indicated in the applicable column of the table.", "units": {"% Inhib @ 10 nM": "%"}, "values": [
      {"smiles": "CCCCN(CCC#N)C(=O)c1cnc(-c2n[nH]c3ccc(-c4cncc(CNCC)c4C)cc23)[nH]1", "note": "[Example 164, N-butyl-N-(2-cyanoethyl)-2-(5-{5-[(ethylamino)methyl]4-methylpyridin-3-yl}-1H-indazol-3-yl)-1H-imidaole-5-carboxamide]", "% Inhib @ 10 nM": 69},
      {"smiles": "CCNCc1cncc(-c2ccc3[nH]nc(-c4ncc(C(=O)N(C)CCc5ccc(OC)c(OC)c5)[nH]4)c3c2)c1C", "note": "[Example 165, N-[2-(3,4-dimethoxyphenyl)ethyl]-2-(5-{5-[(ethylamino)methyl]-4-methylpyridin-3-yl}-1H-indazol-3-yl)-N-methyl-1H-imidazole-5-carboxamide]", "% Inhib @ 10 nM": 37},
      {"smiles": "CCNCc1cncc(-c2ccc3[nH]nc(-c4ncc(C(=O)NCC5CCCCC5)[nH]4)c3c2)c1C", "note": "[Example 166, N-(cyclohexylmethyl)-2-(5-{5-[(ethylamino)methyl]-4-methylpyridin-3-yl}-1H-indazol-3-yl)-1H-imidazole-5-carboxamide]", "% Inhib @ 10 nM": 73},
      {"smiles": "CCNCc1cncc(-c2ccc3[nH]nc(-c4ncc(C(=O)NCCc5cc(OC)c(O)c(OC)c5)[nH]4)c3c2)c1C", "note": "[Example 167]", "% Inhib @ 10 nM": 28},
      {"smiles": "CCNCc1cncc(-c2ccc3[nH]nc(-c4ncc(C(=O)N5CCN(CCOC)CC5)[nH]4)c3c2)c1C", "note": "[Example 169, ethyl({5-[3-(5-{[4-(2-methoxyethyl)piperazin-1-yl]carbonyl}-1H-imidazol-2-yl)-1H-indazol-5-yl]-4-methylpyridin-3-yl}methyl)amine]", "% Inhib @ 10 nM": 37},
      {"smiles": "CCNCc1cncc(-c2ccc3[nH]nc(-c4ncc(C(=O)N5CCC(CNC(=O)C(F)(F)F)CC5)[nH]4)c3c2)c1C", "note": "[Example 170, N-[(1-{[2-(5-{5-[(ethylamino)methyl]-4-methylpyridin-3yl}-1H-indazol-3-yl)-1H-imidazol-5-yl]carbonyl}piperidin-4-yl)methyl]-2,2,2-trifluoroacetamide]", "% Inhib @ 10 nM": 29},
      {"smiles": "CCNCc1cncc(-c2ccc3[nH]nc(-c4ncc(C(=O)N5CCC(C(=O)c6ccccc6)CC5)[nH]4)c3c2)c1C", "note": "[Example 171, (1-{[2-(5-{5[(ethylamino)methyl]-4-methylpyridin-3-yl}-1H-indazol-3-yl)-1H-imidazol-5-yl]carbonyl}piperidin-4-yl)(phenyl)methanone]", "% Inhib @ 10 nM": 65},
      {"smiles": "CCNCc1cncc(-c2ccc3[nH]nc(-c4ncc(C(=O)NC(CO)CCSC)[nH]4)c3c2)c1C", "note": "(centres unmarked) [Example 172]", "% Inhib @ 10 nM": 36},
      {"smiles": "CCNCc1cncc(-c2ccc3[nH]nc(-c4ncc(C(=O)N[C@H](CO)Cc5ccc(O)cc5)[nH]4)c3c2)c1C", "note": "[Example 173]", "% Inhib @ 10 nM": 45},
      {"smiles": "CCNCc1cncc(-c2ccc3[nH]nc(-c4ncc(C(=O)NCCCSC)[nH]4)c3c2)c1C", "note": "[Example 174, 2-(5-{5-[(ethylamino)methyl]-4-methylpyridin-3-yl}-1H-indazol-3-yl)-N-[3-(methylthio)propyl]1H-imidazole-5-carboxamide]", "% Inhib @ 10 nM": 41},
      {"smiles": "CCNCc1cncc(-c2ccc3[nH]nc(-c4ncc(C(=O)N(CC)CCOC)[nH]4)c3c2)c1C", "note": "[Example 175, N-ethyl-2-(5-{5-[(ethylamino)methyl]-4-methylpyridin-3-yl}-1H-indazol-3-yl)-N-(2-methoxyethyl)-1H-imidazole-5-carboxamide]", "% Inhib @ 10 nM": 68},
      {"smiles": "CCNCc1cncc(-c2ccc3[nH]nc(-c4ncc(C(=O)N[C@H](C(=O)NC)[C@@H](C)O)[nH]4)c3c2)c1C", "note": "[Example 176, 2-(5-{5-[(ethylamino)methyl]-4-methylpyridin-3-yl}-1H-indazol-3-yl)-N-{(1S,2R)-2-hydroxy-1-[(methylamino)carbonyl]propyl}-1H-imidazole-5-carboxamide]", "% Inhib @ 10 nM": 59},
      {"smiles": "CCNCc1cncc(-c2ccc3[nH]nc(-c4ncc(C(=O)N5CCC(CO)CC5)[nH]4)c3c2)c1C", "note": "[Example 177, (1-{[2-(5-{5-[(ethylamino)methyl]-4-methylpyridin-3-yl}-1H-indazol-3-yl)-1H-imidazol-5-yl]carbonyl}piperidin-4-yl)methanol]", "% Inhib @ 10 nM": 63},
      {"smiles": "CCNCc1cncc(-c2ccc3[nH]nc(-c4ncc(C(=O)N(C)CC)[nH]4)c3c2)c1C", "note": "[Example 178, N-ethyl-2-(5-{5-[(ethylamino)methyl]-4-methylpyridin-3-yl}-1H-indazol-3-yl)-N-methyl-1H-imidazole-5-carboxamrde]", "% Inhib @ 10 nM": 73},
      {"smiles": "CCNCc1cncc(-c2ccc3[nH]nc(-c4ncc(C(=O)N5CCCN(C(C)=O)CC5)[nH]4)c3c2)c1C", "note": "[Example 179, {[5-(3-(5-[(4-acetyl-1,4-diazepan-1-yl)carbonyl]-1H-imidazol-2-yl]-1H-indazol-5-yl)-4-methylpyridin-3-yl]methyl}ethylamine]", "% Inhib @ 10 nM": 53},
      {"smiles": "CCNCc1cncc(-c2ccc3[nH]nc(-c4ncc(C(=O)N5CCN(CCCN6CCOCC6)CC5)[nH]4)c3c2)c1C", "note": "[Example 180]", "% Inhib @ 10 nM": 22},
      {"smiles": "CCNCc1cncc(-c2ccc3[nH]nc(-c4ncc(C(=O)N5CCN(Cc6ccc(OC)cc6)CC5)[nH]4)c3c2)c1C", "note": "[Example 181, ethyl({5-[3-(5-{[4-(4-methoxybenzyl)piperazin-1-yl]carbonyl}1H-imidazol-2-yl)-1H-indazol-5-yl]-4-methylpyridin-3-yl}methyl)amine]", "% Inhib @ 10 nM": 57},
      {"smiles": "CCNCc1cncc(-c2ccc3[nH]nc(-c4ncc(C(=O)N5CCN(CC(=O)N(C)C)CC5)[nH]4)c3c2)c1C", "note": "[Example 182]", "% Inhib @ 10 nM": 40},
      {"smiles": "CCNCc1cncc(-c2ccc3[nH]nc(-c4ncc(C(=O)N5CCCC(c6nc7ccccc7[nH]6)C5)[nH]4)c3c2)c1C", "note": "(centres unmarked) [Example 183, ({5-[3-(5-{[3-(1H-benzimidazol-2-yl)piperidin-1-yl]carbonyl}-1H-imidazol-2-yl)-1H-indazol-5-yl]-4-methylpyridin-3-yl}methyl)ethylamine]", "% Inhib @ 10 nM": 42},
      {"smiles": "CCNCc1cncc(-c2ccc3[nH]nc(-c4ncc(C(=O)NCC5CCNCC5)[nH]4)c3c2)c1C", "note": "[Example 184]", "% Inhib @ 10 nM": 21},
      {"smiles": "CCNCc1cncc(-c2ccc3[nH]nc(-c4ncc(C(=O)N[C@@H](CO)Cc5c[nH]c6ccccc56)[nH]4)c3c2)c1C", "note": "[Example 185, 2-(5-{5-[(ethylamino)methyl]-4-methylpyridin-3-yl}-1H-indazol-3-yl)-N-[(1R)-2-hydroxy-1-(1H-indol-3-ylmethyl)ethyl]-1H-imidazole-5-carboxamide]", "% Inhib @ 10 nM": 52},
      {"smiles": "CCNCc1cncc(-c2ccc3[nH]nc(-c4ncc(C(=O)N5C[C@@H]6C[C@H]5CO6)[nH]4)c3c2)c1C", "note": "[Example 186, ethyl{[4-methyl-5-(3-{5-[(1S,4S)-2-oxa-5-azabicyclo[2.2.1]hept-5-ylcarbonyl]-1H-imidazol-2-yl)-1H-indazol-5-yl)pyridin-3-yl]methyl}amine]", "% Inhib @ 10 nM": 61},
      {"smiles": "CCNCc1cncc(-c2ccc3[nH]nc(-c4ncc(C(=O)N5CC6C[C@H]5CN6)[nH]4)c3c2)c1C", "note": "[Example 187]", "% Inhib @ 10 nM": 44},
      {"smiles": "CCNCc1cncc(-c2ccc3[nH]nc(-c4ncc(C(=O)NCc5ccc(C(F)(F)F)nc5)[nH]4)c3c2)c1C", "note": "[Example 188, 2-(5-{5-[(ethylamino)methyl]-4-methylpyridin-3-yl}-1H-indazol-3-yl)-N-{(6-(trifluoromethyl)pyridin-3-yl]methyl}-1H-imidazole-5-carboxamide]", "% Inhib @ 10 nM": 41},
      {"smiles": "CCNCc1cncc(-c2ccc3[nH]nc(-c4ncc(C(=O)NCCCc5c[nH]cn5)[nH]4)c3c2)c1C", "note": "[Example 189, 2-(5-{5-[(ethylamino)methyl]-4-methylpyridin-3-yl}-1H-indazol-3-yl)-N-[3-(1H-imidazol-4-yl)propyl]-1H-imidazole-5-carboxamide]", "% Inhib @ 10 nM": 59},
      {"smiles": "CCNCc1cncc(-c2ccc3[nH]nc(-c4ncc(C(=O)N(C)C)[nH]4)c3c2)c1C", "note": "[Example 190, 2-(5-{5-[(ethylamino)methyl}-4-methylpyridin-3-yl}-1H-indazol-3-yl)-N,N-dimethyl-1H-imidazole-5-carboxamide]", "% Inhib @ 10 nM": 76},
      {"smiles": "CCNCc1cncc(-c2ccc3[nH]nc(-c4ncc(C(=O)N5CCC(c6cccc(O)c6)CC5)[nH]4)c3c2)c1C", "note": "[Example 191, 3-(1-{[2-(5-{5-[(ethylamino)methyl]-4-methylpyridin-3-yl}-1H-indazol-3-yl)-1H-imidazol-5-yl]carbonyl}piperidin-4-yl)phenol]", "% Inhib @ 10 nM": 74},
      {"smiles": "CCNCc1cncc(-c2ccc3[nH]nc(-c4ncc(C(=O)NCCC5CCN(Cc6ccccc6)CC5)[nH]4)c3c2)c1C", "note": "[Example 192, N-[2-(1-benzylpiperidin-4-yl)ethyl]-2-(5-{5-[(ethylamino)methyl]-4-methylpyridin-3-yl}-1H-indazol-3-yl)-1H-imidazole-5-carboxamide]", "% Inhib @ 10 nM": 30},
      {"smiles": "CCNCc1cncc(-c2ccc3[nH]nc(-c4ncc(C(=O)N5C[C@@H]6[C@@H](N)[C@@H]6C5)[nH]4)c3c2)c1C", "note": "[Example 193]", "% Inhib @ 10 nM": 52}
    ]}
  ]
}
